Results taken from patent US3940382A, “1,2'-Di-N-substituted kanamycin B compounds” (Zaidan Hojin Biseibutsu Kagaku Kenkyu Kai, priority 1973, dated 1976).
≈ marks a conversion by molar mass, not a printed value.

Assays:
[1] = tested on: gram-negative and gram-positive bacteria sensitive to the kanamycins; details: cited from earlier work
[2] = tested on: drug-resistant bacteria; details: cited from earlier work
[3] = tested on: Escherichia coli JR66/W677; details: strain adenylylating the 2"-hydroxyl group; cited from earlier work
[4] = tested on: kanamycin-resistant strains; details: strains phosphorylating the 3'-hydroxyl group of kanamycins; cited from earlier work
[5] = tested on: Bacillus subtilis NRRL B-558; assay: MIC, serial dilution on nutrient agar; type: cell-based; details: Bacillus subtilis, NRRLB558, 18 h, read-out: Minimum Inhibitory Concentrations
[6] = tested on: Escherichia coli K-12 ML 1629; assay: MIC, serial dilution on nutrient agar; type: cell-based; details: Escherichia coli, K12ML1629, 18 h, read-out: Minimum Inhibitory Concentrations
[7] = tested on: Pseudomonas aeruginosa No.12; assay: MIC, serial dilution on nutrient agar; type: cell-based; details: Pseudomonas aeruginosa, NO.12, 18 h, read-out: Minimum Inhibitory Concentrations
[8] = tested on: Escherichia coli W677; assay: MIC, serial dilution on nutrient agar; type: cell-based; details: Escherichia coli, W677, 18 h, read-out: Minimum Inhibitory Concentrations
[9] = tested on: Escherichia coli LA290 R56; assay: MIC, serial dilution on nutrient agar; type: cell-based; details: LA290R56, 18 h, read-out: Minimum Inhibitory Concentrations
[10] = tested on: Bacillus cereus ATCC 10702; assay: MIC, serial dilution on nutrient agar; type: cell-based; details: Bacillus cereus, ATCC10702, 18 h, read-out: Minimum Inhibitory Concentrations
[11] = tested on: Pseudomonas aeruginosa A3; assay: MIC, serial dilution on nutrient agar; type: cell-based; details: Pseudomonas aeruginosa, A3, 18 h, read-out: Minimum Inhibitory Concentrations
[12] = tested on: Corynebacterium bovis 1810; assay: MIC, serial dilution on nutrient agar; type: cell-based; details: Corynebacterium bovis, 1810, 18 h, read-out: Minimum Inhibitory Concentrations
[13] = tested on: Escherichia coli LA290 R55; assay: MIC, serial dilution on nutrient agar; type: cell-based; details: LA290R55, 18 h, read-out: Minimum Inhibitory Concentrations
[14] = tested on: Klebsiella pneumoniae PCI 602; assay: MIC, serial dilution on nutrient agar; type: cell-based; details: Klebsiella pneumoniae, PCI602, 18 h, read-out: Minimum Inhibitory Concentrations
[15] = tested on: Sarcina lutea PCI 1001; assay: MIC, serial dilution on nutrient agar; type: cell-based; details: Micrococcus luteus, PCI1001, 18 h, read-out: Minimum Inhibitory Concentrations
[16] = tested on: Pseudomonas aeruginosa 99; assay: MIC, serial dilution on nutrient agar; type: cell-based; details: Pseudomonas aeruginosa, 99, 18 h, read-out: Minimum Inhibitory Concentrations
[17] = tested on: Escherichia coli NIHJ; assay: MIC, serial dilution on nutrient agar; type: cell-based; details: Escherichia coli, 18 h, read-out: Minimum Inhibitory Concentrations
[18] = tested on: Staphylococcus aureus Terejima; assay: MIC, serial dilution on nutrient agar; type: cell-based; details: Staphylococcus aureus, 18 h, read-out: Minimum Inhibitory Concentrations
[19] = tested on: Shigella dysenteriae JS 11910; assay: MIC, serial dilution on nutrient agar; type: cell-based; details: JS11910, 18 h, read-out: Minimum Inhibitory Concentrations
[20] = tested on: Escherichia coli LA290 R64; assay: MIC, serial dilution on nutrient agar; type: cell-based; details: LA290R64, 18 h, read-out: Minimum Inhibitory Concentrations
[21] = tested on: Salmonella typhosa T-63; assay: MIC, serial dilution on nutrient agar; type: cell-based; details: Salmonella enterica, 18 h, read-out: Minimum Inhibitory Concentrations
[22] = tested on: Escherichia coli K-12 ML 1410; assay: MIC, serial dilution on nutrient agar; type: cell-based; details: Escherichia coli, K12ML1410, 18 h, read-out: Minimum Inhibitory Concentrations
[23] = tested on: Staphylococcus aureus Smith; assay: MIC, serial dilution on nutrient agar; type: cell-based; details: Staphylococcus aureus, 18 h, read-out: Minimum Inhibitory Concentrations
[24] = tested on: Staphylococcus aureus FDA 209P; assay: MIC, serial dilution on nutrient agar; type: cell-based; details: Staphylococcus aureus, FDA209P, 18 h, read-out: Minimum Inhibitory Concentrations
[25] = tested on: Escherichia coli K-12; assay: MIC, serial dilution on nutrient agar; type: cell-based; details: Escherichia coli, K12, 18 h, read-out: Minimum Inhibitory Concentrations
[26] = tested on: Escherichia coli K-12 ML 1410 R81; assay: MIC, serial dilution on nutrient agar; type: cell-based; details: 18 h, read-out: Minimum Inhibitory Concentrations
[27] = tested on: Mycobacterium smegmatis ATCC 607; assay: MIC, serial dilution on nutrient agar; type: cell-based; details: Mycolicibacterium smegmatis, ATCC607, 18 h, read-out: Minimum Inhibitory Concentrations
[28] = tested on: Salmonella enteritidis 1891; assay: MIC, serial dilution on nutrient agar; type: cell-based; details: Salmonella enterica, ENTERITIDIS, 18 h, read-out: Minimum Inhibitory Concentrations
[29] = tested on: Bacillus anthracis; assay: microbe, parasite or virus in culture; type: cell-based; details: 18 h, read-out: Minimum Inhibitory Concentrations
[30] = tested on: Proteus vulgaris OX 19; assay: MIC, serial dilution on nutrient agar; type: cell-based; details: Proteus vulgaris, OX19, 18 h, read-out: Minimum Inhibitory Concentrations
[31] = tested on: Pseudomonas aeruginosa GN315; assay: MIC, serial dilution on nutrient agar; type: cell-based; details: Pseudomonas aeruginosa, GN315, 18 h, read-out: Minimum Inhibitory Concentrations
[32] = tested on: Klebsiella pneumoniae 22 -3038; assay: MIC, serial dilution on nutrient agar; type: cell-based; details: Klebsiella pneumoniae, 223038, 18 h, read-out: Minimum Inhibitory Concentrations
[33] = tested on: Pseudomonas aeruginosa TI-13; assay: MIC, serial dilution on nutrient agar; type: cell-based; details: Pseudomonas aeruginosa, TI13, 18 h, read-out: Minimum Inhibitory Concentrations
[34] = tested on: Bacillus subtilis PCI 219; assay: MIC, serial dilution on nutrient agar; type: cell-based; details: Bacillus subtilis, PCI219, 18 h, read-out: Minimum Inhibitory Concentrations
[35] = tested on: Escherichia coli JR66/W677; assay: MIC, serial dilution on nutrient agar; type: cell-based; details: Escherichia coli, JR66/W677, 18 h, read-out: Minimum Inhibitory Concentrations
[36] = tested on: Shigella sonnei JS 11746; assay: MIC, serial dilution on nutrient agar; type: cell-based; details: JS11746, 37°C, 18 hours, read-out: Minimum Inhibitory Concentrations
Protocol: (§1) The minimum inhibitory concentrations (mcg/ml) of 1,2'-di-N-[(S)-4-amino-2-hydroxybutyryl]-kanamycin B (abbreviated as 1,2'-AHB-KMB), 1,2'-di-N-[(S)-4-amino-2-hydroxybutyryl]-3',4'-dideoxykanamycin B (abbreviated as 1,2'-AHB-DKB), 1,2'-di-N-DL-isoseryl-3',4'-dideoxykanamycin B (abbreviated as 1,2'-IS-DKB) and 1,2'-di-N-DL-isoseryl-kanamycin B (abbreviated as 1,2'-IS-KMB) against various microorganisms were determined according to serial dilution method using nutrient agar medium at 37°C, the estimation being effected after 18 hours incubation. For comparison, the minimum inhibitory concentrations of kanamycin B (abbreviated as KMB) and 3',4'-dideoxykanamycin B (abbreviated as DKB) were also determined in the same manner as mentioned above.

[37] = tested on: Escherichia coli K-12 ML 1630; assay: MIC, serial dilution on nutrient agar; type: cell-based; details: K12ML1630, 37°C, 18 hours, read-out: Minimum Inhibitory Concentrations
Protocol: as §1

[38] = tested on: Shigella flexneri 4b JS 11811; assay: MIC, serial dilution on nutrient agar; type: cell-based; details: 4BJS11811, 37°C, 18 hours, read-out: Minimum Inhibitory Concentrations
Protocol: as §1

**Q.** With `NCC(O)C(=O)N[C@@H]1C[C@H](N)[C@@H](O[C@H]2O[C@H](CN)[C@@H](O)[C@H](O)[C@H]2N)[C@H](O)[C@H]1O[C@H]1O[C@H](CO)[C@@H](O)[C@H](N)[C@H]1O` (some centres unmarked) [1N-isoserylkanamycinB] as the compound, how does the “effectiveness against bacteria sensitive to the kanamycins” value [1] read?
**A.** effective

**Q.** And the “antibacterial activity against the drug-resistant bacteria” value [2]?
**A.** effective

**Q.** With `NC[C@H]1O[C@H](O[C@H]2[C@H](O)[C@@H](O[C@H]3O[C@H](CO)[C@@H](O)[C@H](N)[C@H]3O)[C@H](N)C[C@@H]2N)[C@H](O)C[C@@H]1O` [3'-deoxykanamycin] as the compound, how does the “activity against kanamycin-resistant strains such as Escherichia coli JR66/W677” value [3] read?
**A.** practically inactive

**Q.** And the “effectiveness against kanamycin-resistant strains” value [4]?
**A.** actually effective

**Q.** For `NC[C@H]1O[C@H](O[C@H]2[C@H](O)[C@@H](O[C@H]3O[C@H](CO)[C@@H](O)[C@H](N)[C@H]3O)[C@H](N)C[C@@H]2N)[C@H](N)[C@@H](O)[C@@H]1O` [KMB, kanamycin B], which MIC [5] is on record?
**A.** < 0.2 µg/mL

**Q.** What about the MIC [6] of the same compound?
**A.** > 100 µg/mL

**Q.** And the MIC [7]?
**A.** 12.5 µg/mL (≈ 25.9 µM)

**Q.** What about the MIC [8] of the same compound?
**A.** 0.39 µg/mL (≈ 0.807 µM)

**Q.** What about the MIC [9] of the same compound?
**A.** 3.13 µg/mL (≈ 6.47 µM)

**Q.** What about the MIC [10] of the same compound?
**A.** 0.78 µg/mL (≈ 1.61 µM)

**Q.** And the MIC [11]?
**A.** 50 µg/mL (≈ 103 µM)

**Q.** What about the MIC [12] of the same compound?
**A.** 1.56 µg/mL (≈ 3.23 µM)

**Q.** And the MIC [13]?
**A.** 12.5 µg/mL (≈ 25.9 µM)

**Q.** What about the MIC [14] of the same compound?
**A.** 0.78 µg/mL (≈ 1.61 µM)

**Q.** What about the MIC [15] of the same compound?
**A.** 1.56 µg/mL (≈ 3.23 µM)

**Q.** What about the MIC [16] of the same compound?
**A.** > 100 µg/mL

**Q.** What about the MIC [17] of the same compound?
**A.** 0.78 µg/mL (≈ 1.61 µM)

**Q.** What about the MIC [18] of the same compound?
**A.** < 0.2 µg/mL

**Q.** What about the MIC [19] of the same compound?
**A.** 3.13 µg/mL (≈ 6.47 µM)

**Q.** What about the MIC [20] of the same compound?
**A.** 3.13 µg/mL (≈ 6.47 µM)

**Q.** What about the MIC [21] of the same compound?
**A.** 0.2 µg/mL (≈ 0.414 µM)

**Q.** And the MIC [22]?
**A.** 0.78 µg/mL (≈ 1.61 µM)

**Q.** And the MIC [23]?
**A.** 0.39 µg/mL (≈ 0.807 µM)

**Q.** And the MIC [24]?
**A.** < 0.2 µg/mL

**Q.** And the MIC [25]?
**A.** 0.78 µg/mL (≈ 1.61 µM)

**Q.** And the MIC [26]?
**A.** > 100 µg/mL

**Q.** What about the MIC [27] of the same compound?
**A.** 0.78 µg/mL (≈ 1.61 µM)

**Q.** What about the MIC [28] of the same compound?
**A.** 1.56 µg/mL (≈ 3.23 µM)

**Q.** What about the MIC [29] of the same compound?
**A.** < 0.2 µg/mL

**Q.** What about the MIC [30] of the same compound?
**A.** 0.78 µg/mL (≈ 1.61 µM)

**Q.** What about the MIC [31] of the same compound?
**A.** > 100 µg/mL

**Q.** What about the MIC [32] of the same compound?
**A.** > 100 µg/mL

**Q.** And the MIC [33]?
**A.** 100 µg/mL (≈ 207 µM)

**Q.** And the MIC [34]?
**A.** < 0.2 µg/mL

**Q.** And the MIC [35]?
**A.** > 100 µg/mL

**Q.** And the MIC [36]?
**A.** 1.56 µg/mL (≈ 3.23 µM)

**Q.** And the MIC [37]?
**A.** > 100 µg/mL

**Q.** What about the MIC [38] of the same compound?
**A.** 3.13 µg/mL (≈ 6.47 µM)
